Values joined by “and” are separate entries in the source; they are usually repeats but may differ in a detail not shown here. Equal values may be shown once. Each block holds one substance with its values, some of them ahead of it. No end group written: not given here.
Key:
[1] = target: T1, α-chymotrypsin (Bos taurus, UniProt P00766, DEL14-15/DEL147-148); experiment: Resistance to chymotryptic cleavage; format: in vitro ADME, bovine pancreas; conditions: peptide 10 μg/ml, 0.1 mol/L TRIS-HCl pH 7.8, urea 120 mg/mL, α-chymotrypsin E:P 1:200, 24 h, 37 °C
T1 construct: purchased Sigma-Aldrich (Steinheim, Germany)
Experimental: Preliminary experiments using a combination of pepsin and trypsin/chymotrypsin (PTC) for enzymatic hydrolysis were performed with the 33-mer. This PTC hydrolysate of the 33-mer was analysed by untargeted LC-MS/MS followed by data evaluation using the MS/MS ions search module of the Mascot software based on the NCBI database (National Library of Medicine, Bethesda, MD, USA). In addition to the original 33-mer, the truncated forms after N-terminal removal of leucine resulting in a 32-mer (m/z 950.0, 4+ and m/z 1266.3, 3+) and pyro-32-mer (m/z 945.7, 4+ and m/z 1260.6, 3+) were identified, but no 30-mer (m/z 889.7, 4+ and m/z 1185.9, 3+) after potential removal of N-terminal LQL. The ratio 33-mer/32-mer/pyro-32-mer was about 12/76/12. To see whether cleavage of the N-terminal leucine could be minimised, only chymotrypsin was used for further experiments. Therefore, the 33-mer peptide was incubated with chymotrypsin using exactly the same conditions as described for the samples to check its resistance towards cleavage, because it contains two potential chymotryptic cleavage sites at positions L1 and L3. […] Full MS/MS scans were also done for the chymotryptic hydrolysates of the albumin/globulin and gliadin fractions obtained from wheat cv. MJO. […] This is consistent with the original report by Shan et al.[4] who only observed pepsin-catalysed cleavage of the N-terminal leucine. Additionally, no analyte loss is expected to take place during sample preparation, which involves the removal of albumins/globulins.
(§1) First, flours (150–200 mg) were defatted with pentane/ethanol (95/5, v/v; 2 × 2.0 mL)[40]. The gliadin fractions from the different defatted flours were extracted as described above. […] The obtained peptide mixture was dried using a vacuum centrifuge (40 °C, 6 h, 800 Pa), re-dissolved in FA (0.1%, v/v, 500 μL), filtered (0.45 μm) and analysed by targeted LC-MS/MS. […] MJO, which were all analysed by untargeted LC-MS/MS. […]

[2] = test system: α-chymotrypsin; experiment: α-chymotrypsin (E:P ratio of 1:200) in TRIS-HCl-buffer (0.1 mol/L TRIS-HCl, pH 7.8, urea 120 mg/mL); conditions: bovine pancreas, 37 °C, up to 24 h
[3] = test system: intestinal peptidases; experiment: intestinal peptidases; conditions: cited from earlier work
[4] = test system: pepsin and trypsin/chymotrypsin (PTC); experiment: pepsin (in 0.01 mol/L HCl, pH 2.0, E:P ratio of 1:25) followed by trypsin and α-chymotrypsin (in 0.05 mol/L phosphate buffer, pH 6.5, E:P ratio of 1:200); conditions: porcine gastric mucosa (pepsin); bovine pancreas (trypsin, α-chymotrypsin), 37 °C, up to 60 min (pepsin) followed by 120 min (trypsin and α-chymotrypsin)
[5] = test system: tissue transglutaminase (TG2); experiment: tissue transglutaminase (TG2); conditions: cited from earlier work
[6] = test system: pepsin; experiment: pepsin; conditions: cited from earlier work
[7] = test system: pepsin and trypsin/chymotrypsin (PTC); experiment: Enzymatic hydrolysis of the 33-mer with pepsin and trypsin/chymotrypsin (PTC); format: in vitro ADME; conditions: untargeted LC-MS/MS
Experimental: Preliminary experiments using a combination of pepsin and trypsin/chymotrypsin (PTC) for enzymatic hydrolysis were performed with the 33-mer. This PTC hydrolysate of the 33-mer was analysed by untargeted LC-MS/MS followed by data evaluation using the MS/MS ions search module of the Mascot software based on the NCBI database (National Library of Medicine, Bethesda, MD, USA). In addition to the original 33-mer, the truncated forms after N-terminal removal of leucine resulting in a 32-mer (m/z 950.0, 4+ and m/z 1266.3, 3+) and pyro-32-mer (m/z 945.7, 4+ and m/z 1260.6, 3+) were identified, but no 30-mer (m/z 889.7, 4+ and m/z 1185.9, 3+) after potential removal of N-terminal LQL. The ratio 33-mer/32-mer/pyro-32-mer was about 12/76/12. To see whether cleavage of the N-terminal leucine could be minimised, only chymotrypsin was used for further experiments. […]
as §1, with “mL)[40].” for “mL)[40]. The gliadin fractions from the different defatted flours were extracted as described above.”

[8] = test system: intestinal peptidases; conditions: 5 (Shan et al. 2002); cited from earlier work
Text: All gluten protein fractions, namely the alcohol-soluble prolamins and the insoluble glutelins, contain CD-active epitopes. The prolamin fraction is particularly rich in proline and glutamine and the numerous proline residues lead to a high resistance to complete proteolytic digestion by human gastric, pancreatic, and brushborder enzymes. […] The 33-mer is widely ca ...

stability towards chymotryptic cleavage, looking for *32-mer, pyro-*32-mer and *30-mer ([1]; full MS/MS scans): stable under the conditions applied
Substance: LQLQP*FPQPQLPYPQPQLPYPQPQLPYPQ*PQ*P*F [*33-mer, [13C28]- and [15N4]-labelled 33-mer peptide used as isotopically labelled internal standard]

cleaved bond [4]: leucine1-Q
fragment found [4]: pyro-32-mer
not cleaved [4]: no 30-mer identified
Substance: LQLQPFPQPQLPYPQPQLPYPQPQLPYPQPQPF
not cleaved [2]: no detectable amounts of 32-mer, pyro-32-mer or 30-mer, only the intact 33-mer
not cleaved [3]: resistant to cleavage by intestinal peptidases
fragment found [5]: 33-mer deamidated at glutamine 72 and 33-mer deamidated at glutamine 65
cleaved bond [6]: leucine1-Q

forms detected after incubation with chymotrypsin, full MS/MS scans of the m/z of 32-mer, pyro-32-mer and 30-mer ([1]; full MS/MS scans, target mass ± 1): only the intact 33-mer
truncated forms after incubation with chymotrypsin, untargeted LC-MS/MS ([1]; untargeted LC-MS/MS): no truncated forms
ratio 33-mer/32-mer/pyro-32-mer in the PTC hydrolysate ([7]; pepsin in 0.01 mol/L HCl, pH 2.0, 60 min, 37 °C, E:P 1:25, then trypsin and α-chymotrypsin in 0.05 mol/L phosphate buffer, pH 6.5, 120 min, 37 °C, E:P 1:200, Mascot, preliminary experiments): about 12/76/12
30-mer after potential removal of N-terminal LQL in the PTC hydrolysate ([7]; same PTC conditions as E1): no 30-mer
Substance: LQLQPFPQPQLPYPQPQLPYPQPQLPYPQPQPF [33-mer]
cleavage by intestinal peptidases [8]: resistant to cleavage by intestinal peptidases

From publication PMC5361186 (Scientific Reports, 2017)
